Experimental data taken from patent US20020193424A1, “Human cancerous cell anti-proliferation and survival inhibition agent” (priority 2000, published 2002).

Tests used:
[1] = human, in vivo; cited from earlier work
[2] = tested on: Human prostate carcinoma DU145 cells; assay: FBS-stimulated cell growth of DU145 cells (total cell number, Coulter Counter); assay type: cell-based; conditions: 10% FBS, 50, 100 and 200 micromolars, counted at 48 and 72 hours, compared with control and silymarin
Experimental: (§1) 1. Cells and Culture Conditions. Human prostate carcinoma DU145 cells were obtained from American Type Culture Collection (Bethesda, Md.), and cultured in RPMI 1640 containing 10% fetal bovine serum (FBS) and 1% penicillin-streptomycin under standard culture conditions. Alternatively, DU145 cells were cultured in 10% charcoal/dextran stripped FBS (cFBS) and 1% penicillin-streptomycin in the presence or absence of 1 nM DHT.
(§2) Silymarin and Silibinin derivatives were dissolved in ethanol for all the treatments. […] The dose and time of silibinin derivatives treatment are depicted in the associated drawings.
(§3) 2. Results. Referring to FIGS. 3 through 6, for the studies assessing the effect of silibinin derivatives on FBS-stimulated cell growth and cell death, DU145 cells were plated at 1×10^5 cells per 60 mm plate in RPMI 1640 containing 10% FBS and treated with either ethanol alone or varying concentrations of silymarin (“Si”) and silibinin derivatives (“D1” and “D2”) (50, 100 and 200 micromolars). Cells were counted at 48 and 72 hours after treatment with the subject compounds.
(§4) At the counting intervals, cells were trypsinized and collected in counting vials. Each plate was washed thoroughly with isotonic buffer containing 0.1% formalin and washings were collected in the original vials with trypsinized cells. Each vial was counted using Coulter Counter to determine the total cell number.

[3] = tested on: Human prostate carcinoma DU145 cells; assay: Percent cell death of DU145 cells; assay type: cell-based; conditions: 10% FBS, 50, 100 and 200 micromolars, 48 and 72 hours, compared with control and silymarin
Experimental: as §1, §2, §3, §4

Row | Substance | tolerability / adverse effects [1] | inhibition of cell growth [2] | percentage of cell death [3]
1 | Silymarin | well tolerated and largely free of adverse effects |  | 
2 | 2,3-Dihydro-3-[3,4-dimethoxyphenyl]-2-[hydroxymethyl]-5,7-dimethoxy-4-oxobenzopyran-2-yl]benzodioxin [Derivative #1] |  | remarkably improved inhibition of cell growth over the control and silymarin | likewise improved percentage of cell death
